Patent publication US11324762B2, “Deuterated derivatives of psilocybin and uses thereof” (Lennham Pharmaceuticals, Inc., priority 2020, dated 2022)

Key:
Type in all cases: in vitro ADME
human MAO-A [1] = molecular target: T1, human MAO-A (Homo sapiens, UniProt P21397); assay: metabolism of psilocin and d10-psilocin by human MAO-A (Example 3); details: 0.2 μM, protein 1 mg/ml, 0-30 min, FIG. 2
T1 sequence (P21397 1-527): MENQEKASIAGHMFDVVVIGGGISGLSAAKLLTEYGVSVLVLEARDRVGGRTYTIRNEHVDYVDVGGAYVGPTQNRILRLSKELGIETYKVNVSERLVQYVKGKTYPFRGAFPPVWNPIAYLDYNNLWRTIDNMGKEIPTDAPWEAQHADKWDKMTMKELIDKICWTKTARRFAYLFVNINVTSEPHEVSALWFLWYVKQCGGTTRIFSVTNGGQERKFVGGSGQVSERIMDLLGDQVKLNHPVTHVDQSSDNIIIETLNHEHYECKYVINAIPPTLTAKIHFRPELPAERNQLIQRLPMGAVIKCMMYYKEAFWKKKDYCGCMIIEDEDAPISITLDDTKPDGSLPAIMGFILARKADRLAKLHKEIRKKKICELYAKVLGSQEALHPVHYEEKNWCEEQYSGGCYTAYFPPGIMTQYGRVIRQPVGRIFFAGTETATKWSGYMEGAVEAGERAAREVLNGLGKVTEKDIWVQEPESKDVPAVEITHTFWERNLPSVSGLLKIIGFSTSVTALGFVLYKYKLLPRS
Method: A study was conducted to assess the metabolism of psilocin and d10-psilocin (the compound of Formula (IB-1)) by human MAO-A under the conditions set forth in Table 3.

[2] = metabolic stability and metabolite formation in human hepatocytes; details: 1.0 million viable cells/ml, 37° C., 0-60 min
Method: (§1) A study was conducted to assess the metabolic stability and metabolite formulation of psilocin and d10-psilocin (the compound of Formula (IB-1)) in human hepatocytes under the conditions set forth in Table 1.

human hepatocytes = assay: as above; details: 1 μM, 60 min
Method: as §1

human MAO-A [3] = molecular target: T1, human MAO-A; assay: metabolism of psilocin by human MAO-A (Example 2); details: 0.2 and 2 μM, protein 0.03-1 mg/ml, 0-30 min, FIGS. 1A & 1B

SMILES | rate of metabolism by human MAO-A compared with psilocin (human MAO-A [1]) | half-life at 1 μM [2] | metabolite 4-hydroxy-indole-3-acetic acid after 60-minute incubation (human hepatocytes) | parent remained after the 60-minute incubation (human hepatocytes) | metabolism by human MAO-A (human MAO-A [3])
[2H]C([2H])([2H])N(C([2H])([2H])[2H])C([2H])([2H])C([2H])([2H])c1c[nH]c2cccc(O)c12 [d10-psilocin] | metabolized more slowly by human MAO-A than psilocin | 4.97 h | undetected | approximately 84% | –
CN(C)CCc1c[nH]c2cccc(O)c12 [psilocin, 4-hydroxy-N,N-dimethyltryptamine] | – | 2.97 h | – | approximately 78% | metabolized by human MAO-A
